Legend:
[1] = Pharmacokinetic evaluation after single oral administration to ICR mice; assay type: in vivo; settings: for half-life / AUC(0-t): mouse, ICR mice, single oral dose 5 mg/kg, plasma; for AUC(0-t): read-out: AUC0-24
Experimental: Pharmacokinetic tests for the compounds of the present invention were conducted as below. After a single oral administration of the compound of the present invention to ICR mice, the concentration of the compound over time was followed up and analyzed.
The compound of the present invention was suspended in 10% DMSO/90% (30% HPbCD aqueous solution) and orally administered to mice at a dose of 5 mg/kg. Blood was collected at a fixed time and plasma was separated. Drug analysis was performed using HPLC (XBridge column C18, Waters, mobile phase 0.1% formic acid:acetonitrile (30:70, %/%)) and MS/MS (ESI positive, MRM). Mouse blood plasma and each commercially available standard solution were mixed at a ratio of 9:1 to prepare and calibrate at concentrations of […] 5,000 ng/mL. In addition, the preparation of QC samples was prepared by mixing the mouse blood plasma and the standard solution for QC at a ratio of 9:1, and prepared to be concentrations of 100, 750 and 2,500 ng/mL. 100 μL of the plasma sample was transferred to a centrifugation tube, and 10 μL of the internal standard solution and 300 μL of methanol were added, followed by mixing for about 30 seconds for pretreatment. The tube was centrifuged at 3,000×g (4° C.) for about 5 minutes, and the supernatant was taken and transferred to an LC vial and injected into the instrument. Then, the concentration of the compound in mouse plasma was quantified by applying a previously validated assay. For pharmacokinetic parameters, the program WinNonlin 5.2 (Pharsight, USA) was used. AUC0-t, AUC0-∞, Cmax, Tmax, and t1/2 were calculated by Noncompartment modeling (best fit). The pharmacokinetic parameter results were expressed as the mean (Mean) and standard deviation (SD), and were statistically processed using the SPSS program (Statistical Package for the Social Sciences, 10.0K, USA).

[2] = target: T1, EGFR^L858R+T790M+C797S (Homo sapiens, UniProt P00533, C797S/L858R/T790M); test: EGFR protein degradation test (Western blot) in Ba/F3 cells expressing mutant EGFR L858R+T790M+C797S (LTC); assay type: cell-based; settings: compounds at 0.1 μM and 1 μM, 24 hours, Western blot with EGFR antibody
T1 construct: expressed in transfected cells; host or cells: Ba/F3
T1 sequence (P00533 25-1210 T790M/C797S/L858R): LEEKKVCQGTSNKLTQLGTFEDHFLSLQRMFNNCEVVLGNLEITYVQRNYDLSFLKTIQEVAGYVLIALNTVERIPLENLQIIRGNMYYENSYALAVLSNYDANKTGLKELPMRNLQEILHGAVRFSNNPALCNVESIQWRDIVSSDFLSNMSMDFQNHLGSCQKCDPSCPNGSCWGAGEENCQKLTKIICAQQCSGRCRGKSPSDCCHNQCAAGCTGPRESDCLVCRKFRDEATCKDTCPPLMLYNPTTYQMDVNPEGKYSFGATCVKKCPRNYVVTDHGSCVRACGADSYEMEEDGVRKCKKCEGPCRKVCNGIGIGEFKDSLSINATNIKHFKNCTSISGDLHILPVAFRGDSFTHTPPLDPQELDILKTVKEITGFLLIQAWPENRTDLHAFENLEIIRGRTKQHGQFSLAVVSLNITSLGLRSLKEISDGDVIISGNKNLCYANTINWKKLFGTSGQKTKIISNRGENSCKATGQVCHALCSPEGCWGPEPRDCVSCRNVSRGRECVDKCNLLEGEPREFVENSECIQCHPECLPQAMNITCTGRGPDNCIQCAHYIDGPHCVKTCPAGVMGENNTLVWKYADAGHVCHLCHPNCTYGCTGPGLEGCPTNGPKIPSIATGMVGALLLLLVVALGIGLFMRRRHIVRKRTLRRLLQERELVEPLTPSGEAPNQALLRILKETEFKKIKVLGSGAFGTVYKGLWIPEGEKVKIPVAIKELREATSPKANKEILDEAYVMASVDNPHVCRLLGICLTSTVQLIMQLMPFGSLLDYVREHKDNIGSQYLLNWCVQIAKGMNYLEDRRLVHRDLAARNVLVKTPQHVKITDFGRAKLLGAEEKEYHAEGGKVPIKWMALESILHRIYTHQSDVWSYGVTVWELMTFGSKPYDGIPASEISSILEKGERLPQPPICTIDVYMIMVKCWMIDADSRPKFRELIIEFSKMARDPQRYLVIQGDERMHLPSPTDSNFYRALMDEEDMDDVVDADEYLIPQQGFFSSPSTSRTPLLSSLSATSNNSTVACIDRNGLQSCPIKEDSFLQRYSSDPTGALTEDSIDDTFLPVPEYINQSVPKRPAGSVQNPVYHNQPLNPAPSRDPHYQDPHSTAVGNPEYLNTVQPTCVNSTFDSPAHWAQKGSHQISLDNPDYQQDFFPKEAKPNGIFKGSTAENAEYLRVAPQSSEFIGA
Outline: (§1)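 EGFR protein level was measured by Western blot on 30 μg lysate, bands quantified by imager. Lysates came from Ba/F3 lines carrying normal, LTC or DTC mutant EGFR, exposed 24 h to compound at 0.1 and 1 μM.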

[3] = system: EGFR^del19+T790M+C797S; test: EGFR protein degradation test (Western blot) in Ba/F3 cells expressing mutant EGFR del19+T790M+C797S (DTC); assay type: cell-based; settings: compounds at 0.1 μM and 1 μM, 24 hours, Western blot with EGFR antibody
Outline: as §1

[4] = 74, 76, 77, 80, 81 vs 45, 71, 51, 65, 53

Row | Structure (SMILES) | half-life [1] [h] | AUC(0-t) [1] [ng·h/mL] | LTC (EGFR^L858R+T790M+C797S) protein degradation [2] | DTC (EGFR^del19+T790M+C797S) protein degradation [3] | AUC compared to the corresponding compounds ([1]; 69, 70, 75, 78, 82 vs compounds 53 and 65) | AUC compared to the corresponding compounds [1, 4]
1 | COc1cc(N2CCC(N3CCN(CCC(=O)N[C@H](C(=O)N4C[C@H](O)C[C@@H]4C(=O)NCc4ccc(-c5scnc5C)cc4)C(C)(C)C)CC3)CC2)ccc1Nc1ncc(Cl)c(Nc2ccccc2N(C)S(C)(=O)=O)n1 [Compound 20, (2R,4R)-1-((S)-2-(3-(4-(1-(4-((5-chloro-4-((2-(N-methylmethylsulfonamido)phenyl)amino)pyrimidin-2-yl)amino)-3-methoxyphenyl)piperidin-4-yl)piperazin-1-yl)propanamido)-3,3-dimethylbutanoyl)-4-hydroxy-N-(4-(4-methylthiazol-5-yl)benzyl)pyrrolidin-2-carboxamide] | 8.99 | 42 | ++ (Protein degradation > 80%) | ++ (Protein degradation > 80%) | – | –
2 | COc1cc(N2CCN(CC3CCN(C(=O)[C@@H](C)Oc4cccc5c4C(=O)N(C4CCC(=O)NC4=O)C5=O)CC3)CC2)ccc1Nc1ncc(Cl)c(Nc2ccccc2N(C)S(C)(=O)=O)n1 (some centres unmarked) [Compound 69] | 3.22 | 280 | ++ (Protein degradation > 80%) | ++ (Protein degradation > 80%) | significantly improved AUC | –
3 | COc1cc(N2CCC(N3CCN(CC(=O)N[C@H](C(=O)N4C[C@H](O)C[C@@H]4C(=O)NCc4ccc(-c5scnc5C)cc4)C(C)(C)C)CC3)CC2)ccc1Nc1ncc(Cl)c(Nc2ccccc2N(C)S(C)(=O)=O)n1 [Compound 11, (2R,4R)-1-((S)-2-(2-(4-(1-(4-((5-chloro-4-((2-(N-methylmethylsulfonamido)phenyl)amino)pyrimidin-2-yl)amino)-3-methoxyphenyl)piperidin-4-yl)piperazin-1-yl)acetamido)-3,3-dimethylbutanoyl)-4-hydroxy-N-(4-(4-methylthiazol-5-yl)benzyl)pyrrolidin-2-carboxamide] | 6.54 | 553 | ++ (Protein degradation > 80%) | ++ (Protein degradation > 80%) | – | –
4 | COc1cc(N2CCC(N3CCN(CCC4CCN(c5ccc6c(c5)C(=O)N(C5CCC(=O)NC5=O)C6=O)CC4)CC3)CC2)ccc1Nc1ncc(Cl)c(Nc2ccccc2N(C)S(C)(=O)=O)n1 (centres unmarked) [Compound 51, N-(2-((5-chloro-2-((4-(4-(4-(2-(1-(2-(2,6-dioxopiperidin-3-yl)-1,3-dioxoisoindolin-5-yl)piperidin-4-yl)ethyl)piperazin-1-yl)piperidin-1-yl)-2-methoxyphenyl)amino)pyrimidin-4-yl)amino)phenyl)-N-methylmethanesulfonamide] | 2.81 | 635 | ++ (Protein degradation > 80%) | ++ (Protein degradation > 80%) | – | –
5 | COc1cc(N2CCC(N3CCN(CC4CCN(c5ccc6c(c5)C(=O)N(C5CCC(=O)NC5=O)C6=O)CC4)CC3)CC2)c(C)cc1Nc1ncc(Cl)c(Nc2ccccc2N(C)S(C)(=O)=O)n1 (centres unmarked) [Compound 76, N-(2-((5-chloro-2-((4-(4-(4-((1-(2-(2,6-dioxopiperidin-3-yl)-1,3-dioxoisoindolin-5-yl)piperidin-4-yl)methyl)piperazin-1-yl)piperidin-1-yl)-2-methoxy-5-methylphenyl)amino)pyrimidin-4-yl)amino)phenyl)-N-methylmethanesulfonamide] | 6.66 | 5240 | ++ (Protein degradation > 80%) | + (Protein degradation 20~80%) | – | significantly improved AUC
6 | COc1cc(N2CCC(N3CCN(CC(=O)Nc4cccc5c4CN(C4CCC(=O)NC4=O)C5=O)CC3)CC2)ccc1Nc1ncc(Cl)c(Nc2ccccc2N(C)S(C)(=O)=O)n1 (centres unmarked) [Compound 22, 2-(4-(1-(4-((5-chloro-4-((2-(N-methylmethylsulfonamido)phenyl)amino)pyrimidin-2-yl)amino)-3-methoxyphenyl)piperidin-4-yl)piperazin-1-yl)-N-(2-(2,6-dioxopiperidin-3-yl)-1-oxoisoindolin-4-yl)acetamide] | 12.4 | 47 | ++ (Protein degradation > 80%) | ++ (Protein degradation > 80%) | – | –
7 | COc1cc(N2CCN(CC3CCN(C(=O)CCc4cccc5c4C(=O)N(C4CCC(=O)NC4=O)C5=O)CC3)CC2)ccc1Nc1ncc(Cl)c(Nc2ccccc2N(C)S(C)(=O)=O)n1 (centres unmarked) [Compound 54, N-(2-((5-chloro-2-((4-(4-((1-(3-(2-(2,6-dioxopiperidin-3-yl)-1,3-dioxoisoindolin-4-yl)propanoyl)piperidin-4-yl)methyl)piperazin-1-yl)-2-methoxyphenyl)amino)pyrimidin-4-yl)amino)phenyl)-N-methylmethanesulfonamide] | 6.12 | 840 | ++ (Protein degradation > 80%) | ++ (Protein degradation > 80%) | – | –
8 | COc1cc(N2CCC(N3CCN(CCC4CCN(c5ccc6c(c5)C(=O)N(C5CCC(=O)NC5=O)C6=O)CC4)CC3)CC2)c(C)cc1Nc1ncc(Cl)c(Nc2ccccc2N(C)S(C)(=O)=O)n1 (centres unmarked) [Compound 77, N-(2-((5-chloro-2-((4-(4-(4-(2-(1-(2-(2,6-dioxopiperidin-3-yl)-1,3-dioxoisoindolin-5-yl)piperidin-4-yl)ethyl)piperazin-1-yl)piperidin-1-yl)-2-methoxy5-methylphenyl)amino)pyrimidin-4-yl)amino)phenyl)-N-methylmethanesulfonamide] | 2.96 | 1170 | ++ (Protein degradation > 80%) | + (Protein degradation 20~80%) | – | significantly improved AUC
